Laboratory results as given in ChEMBL document CHEMBL3585251, “Tetracycline analogues with a selective inhibitory effect on HIF-1” (Medchemcomm, 2014).
Each block holds one molecule with its values, some of them ahead of it. Active and inactive are the calls of the source. The calls are words filed in the database; no cut-off is given here.

How the values were obtained:
[1] = molecular target: T1, Hypoxia-inducible factor 1-alpha (Homo sapiens, UniProt Q16665); assay: Inhibition of human HIF1alpha-mediated transcription expressed in human U251 cells co-transfected with pGL2-TK-HRE incubated for 24 hrs by luciferase reporter gene assay; assay type: cell-based, U-251
Target sequence in this assay (Q16665 whole entry): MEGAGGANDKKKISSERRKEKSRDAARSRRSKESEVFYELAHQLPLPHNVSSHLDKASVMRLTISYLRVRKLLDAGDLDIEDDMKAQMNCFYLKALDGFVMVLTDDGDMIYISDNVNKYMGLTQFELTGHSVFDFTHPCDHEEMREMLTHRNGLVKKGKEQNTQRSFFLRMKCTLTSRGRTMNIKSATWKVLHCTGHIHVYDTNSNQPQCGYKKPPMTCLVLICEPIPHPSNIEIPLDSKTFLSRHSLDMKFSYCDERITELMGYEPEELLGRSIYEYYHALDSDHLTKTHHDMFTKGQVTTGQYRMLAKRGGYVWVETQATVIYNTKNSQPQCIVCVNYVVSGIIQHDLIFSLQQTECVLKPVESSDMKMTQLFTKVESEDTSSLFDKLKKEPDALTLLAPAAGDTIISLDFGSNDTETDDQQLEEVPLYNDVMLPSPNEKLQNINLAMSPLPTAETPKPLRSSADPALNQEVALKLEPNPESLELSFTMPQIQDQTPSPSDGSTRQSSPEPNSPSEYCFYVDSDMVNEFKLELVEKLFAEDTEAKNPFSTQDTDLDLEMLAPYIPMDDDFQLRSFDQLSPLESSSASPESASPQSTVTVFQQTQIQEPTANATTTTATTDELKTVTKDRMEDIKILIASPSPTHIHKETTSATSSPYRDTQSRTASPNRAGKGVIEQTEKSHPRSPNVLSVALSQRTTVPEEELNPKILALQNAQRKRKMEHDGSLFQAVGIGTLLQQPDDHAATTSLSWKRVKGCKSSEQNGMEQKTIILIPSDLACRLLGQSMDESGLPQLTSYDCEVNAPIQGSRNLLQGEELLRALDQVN

U-251 [2] = assay: Effect on basal transcription in human U251 cells co-transfected with pGL3 incubated for 24 hrs by luciferase reporter gene assay; assay type: ADME, cell-based; details: U-251, 24 h
[3] = Selectivity index, ratio of EC50 for effect on basal transcription in human U251 cells co-transfected with pGL3 to EC50 for Inhibition of human HIF1alpha expressed in human U251 cells co-transfected with pGL2-TK-HRE; parameters: species or system U-251
U-251 [4] = assay: Inhibition of human HIF1alpha mRNA expression in wild type human U251 cells at 10 uM incubated for 8 hrs; assay type: functional; details: U-251, 8 h
U-251 [5] = assay: Inhibition of human HIF1alpha mRNA expression in wild type human U251 cells at 10 uM incubated for 16 hrs; assay type: functional; details: U-251, 16 h
U-251 [6] = assay: Inhibition of human HIF1alpha mRNA expression in wild type human U251 cells at 1 uM incubated for 8 hrs under hypoxic condition (reference value: 0.7 no unit); assay type: functional
U-251 [7] = assay: Inhibition of human HIF1alpha mRNA expression in wild type human U251 cells at 10 uM incubated for 8 hrs under hypoxic condition (reference value: 0.7 no unit); assay type: functional
U-251 [8] = assay: Inhibition of human HIF1alpha mRNA expression in wild type human U251 cells at 1 uM incubated for 16 hrs under hypoxic condition (reference value: 0.9 no unit); assay type: functional
U-251 [9] = assay: Inhibition of human HIF1alpha mRNA expression in wild type human U251 cells at 10 uM incubated for 16 hrs under hypoxic condition (reference value: 0.9 no unit); assay type: functional
U-251 [10] = assay: Inhibition of human HIF1alpha mRNA expression in wild type human U251 cells at 1 and 10 uM incubated for 8 and 16 hrs under normoxic condition; assay type: functional, cell-based
U-251 [11] = assay: Effect on basal transcription in wild type human U251 cells at 1 and 10 uM incubated for 8 and 16 hrs under normoxic condition; assay type: ADME, cell-based; details: u-251, 16 h
[12] = molecular target: T1, Hypoxia-inducible factor 1-alpha; assay: Inhibition of hypoxia-induced HIF1alpha protein accumulation in wild type human U251 cells at 1 and 10 uM incubated for 8 hrs under hypoxic condition; assay type: cell-based; details: U-251
Target sequence in this assay (Q16665 whole entry, looked up): as the sequence (Q16665 whole entry) above

[13] = molecular target: T1, Hypoxia-inducible factor 1-alpha; assay: Inhibition of HIF1alpha protein accumulation in wild type human U251 cells at 10 uM incubated for 16 hrs under normoxic condition; assay type: cell-based; details: U-251
Target sequence in this assay (Q16665 whole entry, looked up): as the sequence (Q16665 whole entry) above

U-251 [14] = assay: Inhibition of hypoxia-induced HIF1beta protein accumulation in wild type human U251 cells at 1 and 10 uM incubated for 8 hrs under hypoxic condition; assay type: cell-based
U-251 [15] = assay: Inhibition of hypoxia-induced HIF1beta protein accumulation in wild type human U251 cells at 1 and 10 uM incubated for 8 hrs under normoxic condition; assay type: cell-based
[16] = molecular target: T1, Hypoxia-inducible factor 1-alpha; assay: Inhibition of human HIF1alpha-mediated VEGF mRNA expression in wild type human U251 cells at 1 uM incubated for 16 hrs under hypoxic condition; assay type: cell-based; details: U-251
Target sequence in this assay (Q16665 whole entry, looked up): as the sequence (Q16665 whole entry) above

[17] = molecular target: T1, Hypoxia-inducible factor 1-alpha; assay: Inhibition of human HIF1alpha-mediated VEGF mRNA expression in wild type human U251 cells at 10 uM incubated for 16 hrs under hypoxic condition; assay type: cell-based; details: U-251
Target sequence in this assay (Q16665 whole entry, looked up): as the sequence (Q16665 whole entry) above

[18] = molecular target: T1, Hypoxia-inducible factor 1-alpha; assay: Inhibition of human HIF1alpha-mediated VEGF mRNA expression in wild type human U251 cells at 1 uM incubated for 8 hrs under hypoxic condition (reference value: 3.5 No unit); assay type: cell-based; details: U-251
Target sequence in this assay (Q16665 whole entry, looked up): as the sequence (Q16665 whole entry) above

[19] = molecular target: T1, Hypoxia-inducible factor 1-alpha; assay: Inhibition of human HIF1alpha-mediated VEGF mRNA expression in wild type human U251 cells at 10 uM incubated for 8 hrs under hypoxic condition (reference value: 3.5 No unit); assay type: cell-based; details: U-251
Target sequence in this assay (Q16665 whole entry, looked up): as the sequence (Q16665 whole entry) above

[20] = molecular target: T1, Hypoxia-inducible factor 1-alpha; assay: Inhibition of human HIF1alpha-mediated VEGF mRNA expression in wild type human U251 cells at 1 uM incubated for 16 hrs under normoxic condition (Rvb =2.9 No unit); assay type: cell-based; details: U-251
[21] = molecular target: T1, Hypoxia-inducible factor 1-alpha; assay: Inhibition of human HIF1alpha-mediated VEGF mRNA expression in wild type human U251 cells at 10 uM incubated for 16 hrs under normoxic condition (Rvb =2.9 No unit); assay type: cell-based; details: U-251

EC50 (U-251 [2]): > 20 µM
SMILES: CC[C@@]1(O)C(=O)OCc2c1cc1n(c2=O)Cc2cc3c(CN(C)C)c(O)ccc3nc2-1 [TOPOTECAN]

EC50 [1]: 15.5 µM | EC50 (U-251 [2]): > 20 µM
SMILES: COc1cccc2c1C(=O)[C@@H]1C[C@@H]3C(=CC[C@@H]4C(=O)N(CCC(=O)O)C(=O)[C@@H]43)[C@H](c3ccc(Br)cc3)[C@]1(C)C2=O (racemic)
Ratio EC50 [3]: >1.4

Further lines, the molecule ahead of its results:

SMILES: C[C@@]12C(=O)c3cccc(O)c3C(=O)[C@@H]1C[C@@H]1C(=CC[C@@H]3C(=O)NC(=O)[C@@H]31)[C@@H]2c1ccc(C(F)(F)F)cc1 (racemic)
EC50 [1]: 6.7 µM | EC50 (U-251 [2]): > 20 µM | Ratio EC50 [3]: >3

SMILES: C[C@@]12C[C@@H]3C(=CC[C@@H]4C(=O)N(CCC(=O)O)C(=O)[C@@H]43)[C@H](c3ccc(Br)cc3)[C@@H]1C(=O)c1ccccc1C2=O (racemic)
EC50 [1]: 1.4 µM | EC50 (U-251 [2]): > 20 µM | Ratio EC50 [3]: >14 | inhibition at 10 µM (U-251 [4]): 43% | inhibition at 10 µM (U-251 [5]): 78% | fold change (FC) (U-251 [6]): 0.8 | fold change (FC) (U-251 [7]): 0.4 | fold change (FC) (U-251 [8]): 0.7 | fold change (FC) (U-251 [9]): 0.2 | inhibition (U-251 [10]): Active | Activity (U-251 [11]): Non-toxic | inhibition [12]: Dose-dependent effect | inhibition [13]: Active | inhibition (U-251 [14]): inactive | inhibition (U-251 [15]): inactive | inhibition [16]: 38% | inhibition [17]: 69% | fold change (FC) [18]: 2.7 | fold change (FC) [19]: 1.7 | fold change (FC) [20]: 1.6 | fold change (FC) [21]: 0.9

SMILES: C[C@@]12C[C@@H]3C(=CC[C@@H]4C(=O)NC(=O)[C@@H]43)[C@H](c3ccc(C(F)(F)F)cc3)[C@]1(C)C(=O)c1ccccc1C2=O (racemic)
EC50 [1]: 7.8 µM | EC50 (U-251 [2]): > 20 µM | Ratio EC50 [3]: >2.7

SMILES: COc1cccc2c1C(=O)[C@@H]1C[C@@H]3C(=CC[C@@H]4C(=O)NC(=O)[C@@H]43)[C@H](c3ccc(C(F)(F)F)cc3)[C@]1(C)C2=O (racemic)
EC50 [1]: 6.7 µM | EC50 (U-251 [2]): > 20 µM | Ratio EC50 [3]: >3

SMILES: C[C@@]12C[C@@H]3C(=CC[C@@H]4C(=O)NC(=O)[C@@H]43)[C@H](c3ccc(C(F)(F)F)cc3)[C@@H]1C(=O)c1ccccc1C2=O (racemic)
EC50 [1]: 2.3 µM | EC50 (U-251 [2]): > 20 µM | Ratio EC50 [3]: >8.6 | inhibition at 10 µM (U-251 [4]): 29% | inhibition at 10 µM (U-251 [5]): 45% | fold change (FC) (U-251 [6]): 0.8 | fold change (FC) (U-251 [7]): 0.5 | fold change (FC) (U-251 [8]): 0.7 | fold change (FC) (U-251 [9]): 0.21 | inhibition (U-251 [10]): Active | Activity (U-251 [11]): Non-toxic | inhibition [12]: Dose-dependent effect | inhibition [13]: Active | inhibition (U-251 [14]): inactive | inhibition (U-251 [15]): inactive | inhibition [16]: 35% | inhibition [17]: 59% | fold change (FC) [18]: 3 | fold change (FC) [19]: 1.6 | fold change (FC) [20]: 1.9 | fold change (FC) [21]: 1.2

SMILES: C[C@@]12C[C@@H]3C(=CC[C@@H]4C(=O)N(CCC(=O)O)C(=O)[C@@H]43)[C@H](c3ccc(F)cc3)[C@@H]1C(=O)c1ccccc1C2=O (racemic)
EC50 [1]: 4.1 µM | EC50 (U-251 [2]): 8.7 µM | Ratio EC50 [3]: 2.15
